Reference: PMC5218480 (PLoS ONE, 2017)

System: MV-4-11 cells
Experiment: Gene expression microarray analysis (Affymetrix PrimeView) and GSEA
Format: cell-based, human
Set-up: RFU PODN (11730768_x_at) / Fold change /veh PODN (11730768_x_at) / RFU LINC00158 (11744669_a_at) / Fold change /veh LINC00158 (11744669_a_at) / RFU DUSP10 (11751237_a_at) / Fold change /veh DUSP10 (11751237_a_at) / RFU ID3 (11757404_x_at) / Fold change /veh ID3 (11757404_x_at) / RFU PLEKHG5 (11737974_s_at) / Fold change /veh PLEKHG5 (11737974_s_at) / RFU LRRC4B (11730491_at) / Fold change /veh LRRC4B (11730491_at) / RFU GIMAP4 (11747438_a_at) / Fold change /veh GIMAP4 (11747438_a_at) / RFU KRT8 (11758183_x_at) / Fold change /veh KRT8 (11758183_x_at) / RFU CNN1 (11734310_a_at) / Fold change /veh CNN1 (11734310_a_at) / RFU VPS37D (11726825_at) / Fold change /veh VPS37D (11726825_at) / RFU C10orf10 (11716522_x_at) / Fold change /veh C10orf10 (11716522_x_at) / RFU KIR2DL2 /// KIR2DL4 /// KIR2DL5A /// KIR2DL5B /// KIR2DS1 /// KIR2DS2 /// KIR2DS3 /// KIR2DS4 /// KIR3DL3 /// KIR3DL3 /// KIR3DS1 (11738374_at) / Fold change /veh KIR2DL2 /// KIR2DL4 /// KIR2DL5A /// KIR2DL5B /// KIR2DS1 /// KIR2DS2 /// KIR2DS3 /// KIR2DS4 /// KIR3DL3 /// KIR3DL3 /// KIR3DS1 (11738374_at) / RFU C1QL1 (11718748_at) / Fold change /veh C1QL1 (11718748_at) / RFU TMPRSS4 (11747572_a_at) / Fold change /veh TMPRSS4 (11747572_a_at) / RFU HAMP (11756126_x_at) / Fold change /veh HAMP (11756126_x_at) / RFU RNFT2 (11725882_a_at) / Fold change /veh RNFT2 (11725882_a_at) / RFU NR4A2 (11747474_a_at) / Fold change /veh NR4A2 (11747474_a_at) / RFU ABCC12 (11746883_a_at) / Fold change /veh ABCC12 (11746883_a_at) / RFU TMEM136 (11760407_x_at) / Fold change /veh TMEM136 (11760407_x_at) / RFU CLDN22 /// WWC2 (11732394_at) / Fold change /veh CLDN22 /// WWC2 (11732394_at) / RFU HLA-DPB1 (11760878_x_at) / Fold change /veh HLA-DPB1 (11760878_x_at) / RFU SPINT1 (11716480_a_at) / Fold change /veh SPINT1 (11716480_a_at) / RFU GAP43 (11754022_s_at) / Fold change /veh GAP43 (11754022_s_at) / RFU A4GNT (11735810_at) / Fold change /veh A4GNT (11735810_at) / RFU PRB3 (11715151_x_at) / Fold change /veh PRB3 (11715151_x_at) / RFU TUBB4B (11761932_at) / Fold change /veh TUBB4B (11761932_at) / RFU CAPN14 (11732068_a_at) / Fold change /veh CAPN14 (11732068_a_at) / RFU TMCC2 (11721928_a_at) / Fold change /veh TMCC2 (11721928_a_at) / RFU IRGQ (11745062_a_at) / Fold change /veh IRGQ (11745062_a_at) / RFU FAM174B (11720279_a_at) / Fold change /veh FAM174B (11720279_a_at) / RFU TMPRSS4 (11748680_a_at) / Fold change /veh TMPRSS4 (11748680_a_at) / RFU FAM212B (11763350_a_at) / Fold change /veh FAM212B (11763350_a_at) / RFU PLEKHG5 (11743358_a_at) / Fold change /veh PLEKHG5 (11743358_a_at) / RFU ZSCAN30 (11745921_a_at) / Fold change /veh ZSCAN30 (11745921_a_at) / RFU CMKLR1 (11741424_a_at) / Fold change /veh CMKLR1 (11741424_a_at) / RFU LOC101060620 /// MAPK8IP1 (11723275_at) / Fold change /veh LOC101060620 /// MAPK8IP1 (11723275_at) / RFU SPTSSB (11747773_x_at) / Fold change /veh SPTSSB (11747773_x_at) / RFU PRSS12 (11739890_at) / Fold change /veh PRSS12 (11739890_at) / RFU BIN1 (11741810_x_at) / Fold change /veh BIN1 (11741810_x_at) / RFU WNT11 (11732464_a_at) / Fold change /veh WNT11 (11732464_a_at) / RFU C10orf10 (11716521_a_at) / Fold change /veh C10orf10 (11716521_a_at) / RFU C5orf56 (11738089_at) / Fold change /veh C5orf56 (11738089_at) / RFU CYB561 (11721691_x_at) / Fold change /veh CYB561 (11721691_x_at) / RFU ANKRD19P (11752326_a_at) / Fold change /veh ANKRD19P (11752326_a_at) / RFU OR2T12 /// OR2T33 /// OR2T8 (11738714_s_at) / Fold change /veh OR2T12 /// OR2T33 /// OR2T8 (11738714_s_at) / RFU VCAN (11748164_a_at) / Fold change /veh VCAN (11748164_a_at) / RFU JSRP1 (11732532_at) / Fold change /veh JSRP1 (11732532_at) / RFU KRTAP10-11 (11738290_x_at) / Fold change /veh KRTAP10-11 (11738290_x_at) / RFU MYO3A (11730013_a_at) / Fold change /veh MYO3A (11730013_a_at) / RFU EBF3 (11725865_a_at) / Fold change /veh EBF3 (11725865_a_at) / RFU CAMK2N1 (11719241_x_at) / Fold change /veh CAMK2N1 (11719241_x_at) / RFU C5orf56 (11738088_a_at) / Fold change /veh C5orf56 (11738088_a_at) / RFU OLFML3 (11715873_a_at) / Fold change /veh OLFML3 (11715873_a_at) / RFU LOC100653217 /// NTM (11731650_a_at) / Fold change /veh LOC100653217 /// NTM (11731650_a_at) / RFU MAPK11 (11762145_a_at) / Fold change /veh MAPK11 (11762145_a_at) / RFU FIZ1 (11724087_x_at) / Fold change /veh FIZ1 (11724087_x_at) / RFU OASL (11726364_x_at) / Fold change /veh OASL (11726364_x_at) / RFU SOX15 (11748057_x_at) / Fold change /veh SOX15 (11748057_x_at) / RFU CD79A (11719716_a_at) / Fold change /veh CD79A (11719716_a_at) / RFU HIST1H1D (11736915_at) / Fold change /veh HIST1H1D (11736915_at) / RFU CASKIN2 (11723855_a_at) / Fold change /veh CASKIN2 (11723855_a_at) / RFU LOC730098 (11760151_x_at) / Fold change /veh LOC730098 (11760151_x_at) / RFU OR4N2 (11742367_at) / Fold change /veh OR4N2 (11742367_at) / RFU PRRT2 (11749266_a_at) / Fold change /veh PRRT2 (11749266_a_at) / RFU SNX32 (11753110_a_at) / Fold change /veh SNX32 (11753110_a_at) / RFU CDHR5 (11726645_a_at) / Fold change /veh CDHR5 (11726645_a_at) / RFU RCAN1 (11760418_a_at) / Fold change /veh RCAN1 (11760418_a_at) / RFU FAM167A (11723789_a_at) / Fold change /veh FAM167A (11723789_a_at) / RFU FAM26E (11764081_at) / Fold change /veh FAM26E (11764081_at) / RFU ISYNA1 (11749810_s_at) / Fold change /veh ISYNA1 (11749810_s_at) / RFU ACY1 (11761880_at) / Fold change /veh ACY1 (11761880_at) / RFU 11764098_at / Fold change /veh 11764098_at / RFU SAMD14 (11745864_x_at) / Fold change /veh SAMD14 (11745864_x_at) / RFU NPB (11741838_a_at) / Fold change /veh NPB (11741838_a_at) / RFU TMPRSS6 (11731388_a_at) / Fold change /veh TMPRSS6 (11731388_a_at) / RFU KRTAP10-2 (11738614_at) / Fold change /veh KRTAP10-2 (11738614_at) / RFU ARHGAP8 /// PRR5-ARHGAP8 (11727945_x_at) / Fold change /veh ARHGAP8 /// PRR5-ARHGAP8 (11727945_x_at) / RFU KRTAP5-7 /// NADSYN1 (11734609_at) / Fold change /veh KRTAP5-7 /// NADSYN1 (11734609_at) / RFU RASL12 (11751679_a_at) / Fold change /veh RASL12 (11751679_a_at) / RFU CDKN2B (11736163_a_at) / Fold change /veh CDKN2B (11736163_a_at) / RFU PRF1 (11729649_at) / Fold change /veh PRF1 (11729649_at) / RFU, ZNF638 /// ZNF638-IT1 / Fold change vs veh, ZNF638 /// ZNF638-IT1 / RFU, PANK3 / Fold change vs veh, PANK3 / RFU, SH3YL1 / Fold change vs veh, SH3YL1 / RFU, ZEB2 / Fold change vs veh, ZEB2 / RFU, NRIP1 / Fold change vs veh, NRIP1 / RFU, PTTG1IP / Fold change vs veh, PTTG1IP / RFU, CAPN2 / Fold change vs veh, CAPN2 / RFU, MED14 / Fold change vs veh, MED14 / RFU, SNORA58 / Fold change vs veh, SNORA58 / RFU, C1orf63 / Fold change vs veh, C1orf63 / RFU, LRRFIP1 / Fold change vs veh, LRRFIP1 / RFU, NDUFAF7 / Fold change vs veh, NDUFAF7 / RFU, SLC12A2 / Fold change vs veh, SLC12A2 / RFU, IBTK / Fold change vs veh, IBTK / RFU, ESF1 / Fold change vs veh, ESF1 / Fold change vs veh, TMEM50B / RFU, TAOK1 / Fold change vs veh, TAOK1 / RFU, ACBD3 / Fold change vs veh, ACBD3 / RFU, TMA16 / Fold change vs veh, TMA16 / RFU, RWDD3 / Fold change vs veh, RWDD3 / RFU, BCAT1 / Fold change vs veh, BCAT1 / RFU, EDEM3 / Fold change vs veh, EDEM3 / RFU, TMEM33 / Fold change vs veh, TMEM33 / RFU, WDR75 / Fold change vs veh, WDR75 / RFU, AHCTF1 / Fold change vs veh, AHCTF1 / RFU, TFRC / Fold change vs veh, TFRC / RFU, ZDHHC17 / Fold change vs veh, ZDHHC17 / RFU, NOM1 / Fold change vs veh, NOM1 / RFU, ARL8B / Fold change vs veh, ARL8B / RFU, ZBTB11 / Fold change vs veh, ZBTB11 / RFU, TAMM41 / Fold change vs veh, TAMM41 / RFU, KIAA1704 /// LOC100996395 / Fold change vs veh, KIAA1704 /// LOC100996395 / RFU, ING1 / Fold change vs veh, ING1 / RFU, TRMT61B / Fold change vs veh, TRMT61B / RFU, FUBP3 / Fold change vs veh, FUBP3 / RFU, TP53 / Fold change vs veh, TP53 / RFU, TNKS2 / Fold change vs veh, TNKS2 / RFU, ZFP14 / Fold change vs veh, ZFP14 / RFU, ACTR2 / Fold change vs veh, ACTR2 / RFU, PPP3R1 / Fold change vs veh, PPP3R1 / RFU, PIK3R1 / Fold change vs veh, PIK3R1 / RFU, HNRNPA1 / Fold change vs veh, HNRNPA1 / RFU, RNF170 / Fold change vs veh, RNF170 / RFU, ZNF28 / Fold change vs veh, ZNF28 / RFU, RNGTT / Fold change vs veh, RNGTT / RFU, OGT / Fold change vs veh, OGT / RFU, BRD1 / Fold change vs veh, BRD1 / RFU, MARS / Fold change vs veh, MARS / RFU, ZNF655 / Fold change vs veh, ZNF655 / RFU, FAHD1 / Fold change vs veh, FAHD1 / RFU, BDP1 / Fold change vs veh, BDP1 / RFU, LRRCC1 / Fold change vs veh, LRRCC1 / RFU, ARID1A / Fold change vs veh, ARID1A / RFU, ZNF146 / Fold change vs veh, ZNF146 / RFU, ZNF330 / Fold change vs veh, ZNF330 / RFU, GPN3 / Fold change vs veh, GPN3 / RFU, C9orf123 / Fold change vs veh, C9orf123 / RFU, N4BP2L2 / Fold change vs veh, N4BP2L2 / RFU, ARFIP1 / Fold change vs veh, ARFIP1 / RFU, FAM179B / Fold change vs veh, FAM179B / RFU, BCL10 / Fold change vs veh, BCL10 / RFU, UHRF1BP1L / Fold change vs veh, UHRF1BP1L / RFU, BET1 / Fold change vs veh, BET1 / RFU, CNOT2 / Fold change vs veh, CNOT2 / RFU, ZNF268 / Fold change vs veh, ZNF268 / Fold change vs veh, ZNF507 / RFU, DGCR2 / Fold change vs veh, DGCR2 / RFU, WDSUB1 / Fold change vs veh, WDSUB1 / Fold change vs veh, HSP90B1 /// MIR3652 / RFU, ADSS / Fold change vs veh, ADSS / RFU, GK / Fold change vs veh, GK / RFU, ZNF148 / Fold change vs veh, ZNF148 / RFU, TAF9 / Fold change vs veh, TAF9 / RFU, SLC1A5 / Fold change vs veh, SLC1A5 / RFU, SLMO2 / Fold change vs veh, SLMO2 / RFU, ABCC4 / Fold change vs veh, ABCC4 / RFU, LOC101060439 /// RAP1B / Fold change vs veh, LOC101060439 /// RAP1B / RFU, RFX7 / Fold change vs veh, RFX7 / RFU, GTPBP10 / Fold change vs veh, GTPBP10 / RFU, CNEP1R1 / Fold change vs veh, CNEP1R1 / RFU, BIVM-ERCC5 /// ERCC5 / Fold change vs veh, BIVM-ERCC5 /// ERCC5 / RFU, ILF3 / Fold change vs veh, ILF3 / RFU 11762660_at / Fold change /veh 11762660_at / RFU VCAN (11757783_s_at) / Fold change /veh VCAN (11757783_s_at) / RFU DDX43 (11728927_at) / Fold change /veh DDX43 (11728927_at) / RFU KRT8 (11758188_x_at) / Fold change /veh KRT8 (11758188_x_at) / RFU NKD1 (11759106_at) / Fold change /veh NKD1 (11759106_at) / RFU SRD5A1 (11742802_a_at) / Fold change /veh SRD5A1 (11742802_a_at) / RFU TPSAB1 /// TPSB2 (11721975_s_at) / Fold change /veh TPSAB1 /// TPSB2 (11721975_s_at) / RFU GSTM3 (11746129_a_at) / Fold change /veh GSTM3 (11746129_a_at) / RFU IL23R (11737362_x_at) / Fold change /veh IL23R (11737362_x_at) / RFU TMEM51 (11727254_a_at) / Fold change /veh TMEM51 (11727254_a_at) / RFU PIWIL2 (11732686_x_at) / Fold change /veh PIWIL2 (11732686_x_at) / RFU ORM1 (11744905_x_at) / Fold change /veh ORM1 (11744905_x_at) / RFU CCDC152 (11743942_at) / Fold change /veh CCDC152 (11743942_at) / RFU ECM1 (11717891_a_at) / Fold change /veh ECM1 (11717891_a_at) / RFU IL23R (11748794_a_at) / Fold change /veh IL23R (11748794_a_at) / RFU TNFAIP8L3 (11732012_x_at) / Fold change /veh TNFAIP8L3 (11732012_x_at) / RFU MBOAT4 (11741988_at) / Fold change /veh MBOAT4 (11741988_at) / RFU 11764193_at / Fold change /veh 11764193_at / RFU TMEM53 (11763286_at) / Fold change /veh TMEM53 (11763286_at) / RFU MAGEB2 (11727129_at) / Fold change /veh MAGEB2 (11727129_at) / RFU TMEM200A (11744735_a_at) / Fold change /veh TMEM200A (11744735_a_at) / RFU CCDC152 (11751479_a_at) / Fold change /veh CCDC152 (11751479_a_at) / RFU FAM211A (11726209_a_at) / Fold change /veh FAM211A (11726209_a_at) / RFU RGS16 (11746705_a_at) / Fold change /veh RGS16 (11746705_a_at) / RFU VCAN (11755009_s_at) / Fold change /veh VCAN (11755009_s_at) / RFU RHOB (11743442_s_at) / Fold change /veh RHOB (11743442_s_at) / RFU RGS16 (11720943_a_at) / Fold change /veh RGS16 (11720943_a_at) / RFU RGS16 (11720944_at) / Fold change /veh RGS16 (11720944_at) / RFU, VPS4B / Fold change vs veh, VPS4B / RFU, CREB1 / Fold change vs veh, CREB1 / RFU, DNAJC13 / Fold change vs veh, DNAJC13 / RFU, GNAQ / Fold change vs veh, GNAQ / RFU, CDK5R1 / Fold change vs veh, CDK5R1 / RFU, ZRANB3 / Fold change vs veh, ZRANB3 / RFU, CUL4A / Fold change vs veh, CUL4A / RFU, CCNY / Fold change vs veh, CCNY / RFU, UFL1 / Fold change vs veh, UFL1 / RFU, COG3 / Fold change vs veh, COG3 / RFU, DIAPH2 / Fold change vs veh, DIAPH2 / RFU, SKA2 / Fold change vs veh, SKA2 / RFU, AFF3 / Fold change vs veh, AFF3 / RFU, LMF1 / Fold change vs veh, LMF1 / RFU, IPO11 / Fold change vs veh, IPO11 / RFU, DFFB / Fold change vs veh, DFFB / RFU, FOXP1 / Fold change vs veh, FOXP1 / RFU, CARD8 / Fold change vs veh, CARD8 / RFU, STRN3 / Fold change vs veh, STRN3 / RFU, ADK / Fold change vs veh, ADK / RFU, RASSF2 / Fold change vs veh, RASSF2 / RFU, WIPF1 / Fold change vs veh, WIPF1 / RFU, LARP1B / Fold change vs veh, LARP1B / RFU, RASA1 / Fold change vs veh, RASA1 / RFU, RB1 / Fold change vs veh, RB1 / RFU, PPFIA1 / Fold change vs veh, PPFIA1 / RFU, MAT2A / Fold change vs veh, MAT2A / RFU, CCT5 / Fold change vs veh, CCT5 / RFU, WDR92 / Fold change vs veh, WDR92 / RFU, CUX1 / Fold change vs veh, CUX1 / RFU, TTC7A / Fold change vs veh, TTC7A / RFU, TMEM135 / Fold change vs veh, TMEM135 / RFU, DEPTOR / Fold change vs veh, DEPTOR / RFU, CPM / Fold change vs veh, CPM / RFU, DNAJB6 / Fold change vs veh, DNAJB6 / RFU, CACNA2D3 / Fold change vs veh, CACNA2D3 / RFU, DTX4 / Fold change vs veh, DTX4 / RFU, TFCP2 / Fold change vs veh, TFCP2 / RFU, GMCL1 /// GMCL1P1 / Fold change vs veh, GMCL1 /// GMCL1P1 / RFU, AEBP2 / Fold change vs veh, AEBP2 / RFU, SNHG1 /// SNORD22 /// SNORD25 /// SNORD26 /// SNORD27 /// SNORD28 /// SNORD29 /// SNORD31 / Fold change vs veh, SNHG1 /// SNORD22 /// SNORD25 /// SNORD26 /// SNORD27 /// SNORD28 /// SNORD29 /// SNORD31 / Fold change (Aza/veh), C12orf56 (ProbeSet 11735607_a_at) / Fold change (ACY-1035/veh), C12orf56 (ProbeSet 11735607_a_at) / Fold change (Aza/veh), FGFR1OP (ProbeSet 11751329_s_at) / Fold change (ACY-1035/veh), FGFR1OP (ProbeSet 11751329_s_at) / Fold change (Aza/veh), VPS36 (ProbeSet 11739960_a_at) / Fold change (ACY-1035/veh), VPS36 (ProbeSet 11739960_a_at) / RFU SYPL1 (11715823_x_at) / Fold change /veh SYPL1 (11715823_x_at) / RFU IGFBP7 (11715501_s_at) / Fold change /veh IGFBP7 (11715501_s_at) / RFU REEP3 (11722064_at) / Fold change /veh REEP3 (11722064_at) / RFU IGLL1 (11728026_x_at) / Fold change /veh IGLL1 (11728026_x_at): dose or concentration left out as unconfirmed
Conditions: ProbeSet 11729173_a_at; LIST D

## Nc1ncn([C@@H]2O[C@H](CO)[C@@H](O)[C@H]2O)c(=O)n1 [azacitidine]
  Fold change vs veh, SKA2: 0.81
